Assay results published in PubChem BioAssay AID2060617 (Molecular Pharmacology Branch, DTP, NCI, 2025).

System: 485368-065-R4-J2-PDC spheroids with HUVEC/MSC, viability
Experiment: Anticancer human tumor 485368-065-R4-J2-PDC patient-derived pancreatic carcinoma cell line growth inhibition [CLK]
Details: for IC50: curve of first compound; for viability, T/C: stronger effect = lower value
Outline: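 Patient-derived tumor cells grown as complex spheroids with HUVEC endothelial cells and mesenchymal stem cells, treated with drug combinations. Concentrations descend in half-log steps from near clinical Cmax, or from 10 microM if Cmax unknown.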

[1] = second compound 0.0316 µM, first compound 0.0316 µM
[2] = second compound 0.0316 µM, first compound 0.1 µM
[3] = second compound 0.0316 µM, first compound 0.316 µM
[4] = second compound 0.0316 µM, first compound 1 µM
[5] = second compound 0.0316 µM, first compound 3.16 µM
[6] = second compound 0.0316 µM, first compound 10 µM
[7] = second compound 0.1 µM, first compound 0.0316 µM
[8] = second compound 0.1 µM, first compound 0.1 µM
[9] = second compound 0.1 µM, first compound 0.316 µM
[10] = second compound 0.1 µM, first compound 1 µM
[11] = second compound 0.1 µM, first compound 3.16 µM
[12] = second compound 0.1 µM, first compound 10 µM
[13] = second compound 0.316 µM, first compound 0.0316 µM
[14] = second compound 0.316 µM, first compound 0.1 µM
[15] = second compound 0.316 µM, first compound 0.316 µM
[16] = second compound 0.316 µM, first compound 1 µM
[17] = second compound 0.316 µM, first compound 3.16 µM
[18] = second compound 0.316 µM, first compound 10 µM
[19] = second compound 1 µM, first compound 0.0316 µM
[20] = second compound 1 µM, first compound 0.1 µM
[21] = second compound 1 µM, first compound 0.316 µM
[22] = second compound 1 µM, first compound 1 µM
[23] = second compound 1 µM, first compound 3.16 µM
[24] = second compound 1 µM, first compound 10 µM
[25] = second compound 3.16 µM, first compound 0.0316 µM
[26] = second compound 3.16 µM, first compound 0.1 µM
[27] = second compound 3.16 µM, first compound 0.316 µM
[28] = second compound 3.16 µM, first compound 1 µM
[29] = second compound 3.16 µM, first compound 3.16 µM
[30] = second compound 3.16 µM, first compound 10 µM
[31] = second compound 10 µM, first compound 0.0316 µM
[32] = second compound 10 µM, first compound 0.1 µM
[33] = second compound 10 µM, first compound 0.316 µM
[34] = second compound 10 µM, first compound 1 µM
[35] = second compound 10 µM, first compound 3.16 µM
[36] = second compound 10 µM, first compound 10 µM
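Also: spheroids exposed to compounds for seven days.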
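For viability, T/C in this document: 100% = DMSO vehicle control wells.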

`COc1ccc([C@@H](O)c2cc(-c3ncnc4cc(N5CCOCC5)ccc34)c(F)cc2Cl)nn1` + CN1CCN(c2cc(C(=O)Nc3cc4cc(-c5cnn(C)c5)ccc4cn3)ccn2)CC1 gave an IC50 (second compound 0.0316 µM) of over 10 µM, an IC50 (second compound 0.1 µM) of over 10 µM and an IC50 (second compound 0.316 µM) of 8.18 µM. For the same compound, the IC50 (second compound 1 µM) was under 0.0316 µM, the IC50 (second compound 3.16 µM) was under 0.0316 µM and the IC50 (second compound 10 µM) was under 0.0316 µM. It also gave a viability, T/C [1] of 106%, a viability, T/C [2] of 109% and a viability, T/C [3] of 111%. For the same compound, the viability, T/C [4] was 119%, the viability, T/C [5] was 109% and the viability, T/C [6] was 82%. For the same compound, the viability, T/C [7] was 114%, the viability, T/C [8] was 113% and the viability, T/C [9] was 113%. It also gave a viability, T/C [10] of 115%, a viability, T/C [11] of 100% and a viability, T/C [12] of 74.6%. It also gave a viability, T/C [13] of 79%, a viability, T/C [14] of 81.2% and a viability, T/C [15] of 69.7%. It also gave a viability, T/C [16] of 65%, a viability, T/C [17] of 61.3% and a viability, T/C [18] of 47.2%. The viability, T/C [19] was 0.59%, the viability, T/C [20] was 0.61% and the viability, T/C [21] was 0.67%. It also gave a viability, T/C [22] of 0.97%, a viability, T/C [23] of 0.95% and a viability, T/C [24] of 1.67%. For the same compound, the viability, T/C [25] was 1.12%, the viability, T/C [26] was 1.03% and the viability, T/C [27] was 0.98%. The viability, T/C [28] was 1.02%, the viability, T/C [29] was 1.01% and the viability, T/C [30] was 1.54%. It also gave a viability, T/C [31] of 1.19%, a viability, T/C [32] of 1.26% and a viability, T/C [33] of 1.23%. It also gave a viability, T/C [34] of 1.29%, a viability, T/C [35] of 2.19% and a viability, T/C [36] of 3.09%.

`CCCS(=O)(=O)Nc1ccc(F)c(C(=O)c2c[nH]c3ncc(-c4ccc(Cl)cc4)cc23)c1F` + CNC(=O)c1ccc(Nc2nc(OC3CCCC3)c3c(-c4ccc5nc(C)oc5c4)c[nH]c3n2)c(OC)c1 showed an IC50 (second compound 0.0316 µM) of over 10 µM, an IC50 (second compound 0.1 µM) of over 10 µM and an IC50 (second compound 0.316 µM) of over 10 µM. It also gave an IC50 (second compound 1 µM) of over 10 µM, an IC50 (second compound 3.16 µM) of over 10 µM and an IC50 (second compound 10 µM) of over 10 µM. For the same compound, the viability, T/C [1] was 92.6%, the viability, T/C [2] was 95.1% and the viability, T/C [3] was 93.2%. It also gave a viability, T/C [4] of 97.5%, a viability, T/C [5] of 91.6% and a viability, T/C [6] of 114%. The viability, T/C [7] was 100%, the viability, T/C [8] was 99.5% and the viability, T/C [9] was 95.9%. For the same compound, the viability, T/C [10] was 90.1%, the viability, T/C [11] was 98.3% and the viability, T/C [12] was 112%. It also gave a viability, T/C [13] of 90%, a viability, T/C [14] of 84.8% and a viability, T/C [15] of 87.9%. The viability, T/C [16] was 85.4%, the viability, T/C [17] was 95.9% and the viability, T/C [18] was 104%. The viability, T/C [19] was 83.5%, the viability, T/C [20] was 80.7% and the viability, T/C [21] was 85.7%. For the same compound, the viability, T/C [22] was 78.9%, the viability, T/C [23] was 89.7% and the viability, T/C [24] was 105%. It also gave a viability, T/C [25] of 70.7%, a viability, T/C [26] of 75.5% and a viability, T/C [27] of 85.4%. The viability, T/C [28] was 78.9%, the viability, T/C [29] was 95.2% and the viability, T/C [30] was 99.5%. It also gave a viability, T/C [31] of 75.7%, a viability, T/C [32] of 73.6% and a viability, T/C [33] of 86.7%. For the same compound, the viability, T/C [34] was 78.9%, the viability, T/C [35] was 90.1% and the viability, T/C [36] was 93.4%.

`COC1C=CCC(C)C(C)S(=O)(=O)NC(=O)c2ccc3c(c2)N(CC2CCC21)CC1(CCCc2cc(Cl)ccc21)CO3` (stereo unspecified) + CNC(=O)c1ccc(Nc2nc(OC3CCCC3)c3c(-c4ccc5nc(C)oc5c4)c[nH]c3n2)c(OC)c1 was tested, and the IC50 (second compound 0.0316 µM) was over 10 µM, the IC50 (second compound 0.1 µM) was over 10 µM and the IC50 (second compound 0.316 µM) was over 10 µM. For the same compound, the IC50 (second compound 1 µM) was over 10 µM, the IC50 (second compound 3.16 µM) was over 10 µM and the IC50 (second compound 10 µM) was over 10 µM. The viability, T/C [1] was 88.7%, the viability, T/C [2] was 82.8% and the viability, T/C [3] was 96.8%. The viability, T/C [4] was 105%, the viability, T/C [5] was 103% and the viability, T/C [6] was 85.9%. For the same compound, the viability, T/C [7] was 96%, the viability, T/C [8] was 99.7% and the viability, T/C [9] was 105%. The viability, T/C [10] was 96.4%, the viability, T/C [11] was 92.8% and the viability, T/C [12] was 91.3%. The viability, T/C [13] was 82.5%, the viability, T/C [14] was 77.9% and the viability, T/C [15] was 89.8%. It also gave a viability, T/C [16] of 89.7%, a viability, T/C [17] of 98.8% and a viability, T/C [18] of 102%. It also gave a viability, T/C [19] of 83.2%, a viability, T/C [20] of 74.1% and a viability, T/C [21] of 73.7%. For the same compound, the viability, T/C [22] was 74.9%, the viability, T/C [23] was 91.8% and the viability, T/C [24] was 105%. The viability, T/C [25] was 71.2%, the viability, T/C [26] was 69.7% and the viability, T/C [27] was 72.9%. For the same compound, the viability, T/C [28] was 68.4%, the viability, T/C [29] was 94.2% and the viability, T/C [30] was 102%. The viability, T/C [31] was 65.5%, the viability, T/C [32] was 68.6% and the viability, T/C [33] was 69.1%. It also gave a viability, T/C [34] of 66.7%, a viability, T/C [35] of 82.3% and a viability, T/C [36] of 85.9%.
